Test results from patent US20060182805A1, “Dosage form and method for sustained release of substituted pyrazine compound” (Jazz Pharmaceuticals, priority 2005, published 2006).
Where two headings read alike, the source gives them in different places.

How the values were obtained:
[1] = Pharmacokinetics of the drug after single oral dose (volume of distribution, half lives); format: in vivo; details: for half-life: human, plasma, oral
Experimental: In this case, the drug is eliminated rapidly from the plasma via distribution into other tissues as well as through metabolism and excretion into the urine. The rapid elimination makes it necessary to deliver the drug into the GI tract for extended periods of time, up to about 24 hours. It may also require that the drug be delivered in an ascending profile such as that shown in this FIG. 5. Such ascending profile may be accomplished by increasing the dose from an initial dose in two to five increments to achieve a desired maximum dose or by delivering a dosage form with an ascending profile for the initial two to five doses. Such doses may be delivered every 24 hours or every 12 hours.
A steady state plasma profile occurs after the administration of two to three doses. The achievement of steady state with the desirable Cmax/Cmin ratio after the administration of very few doses is advantageous in that therapeutic levels are achieved in a short time and maintained thereafter. Rapid attainment of steady state allows for faster increases or decreases in dose without unwanted side effects and the resultant titration to a therapeutically effective dose and, if necessary, withdrawal of therapy. The Cmax/Cmin ratio at steady state is less than 3, often less than 2, often less than 1.5 and between 1.0 and 2.

[2] = In vitro release rate (dissolution) from dosage forms, FIG. 3-5; format: physicochemical
Experimental: By “dissolution rate” or “release rate” is intended the amount of active agent released in vitro from a dosage form per unit time into a release medium, usually in units of milligrams per hour (mg/hr). In vitro release rates are performed on dosage forms placed in metal coil sample holders attached to a USP Type VII bath indexer in a constant temperature water bath at 37° C. In addition, other appropriate dissolution test apparatuses may be suitable, such as, USP apparatus I or II. Aliquots of the release rate solutions are injected into a chromatographic system to quantify the amounts of drug released during each testing interval. According to the invention, between 2 and 50% of the dose is released following two hours after exposure of the dosage form to the environment of use. These dissolution rates may be between 2 and 60% or 10 and 50% within the first 4 hours, between about 20 and 80% or 35 and 70% from 4 hours to about 8 hours following exposure to the environment of use between about 35 and 95% or 45 and 85% from 8 hours to about 12 hours following exposure to the environment of use and greater than 50 to 80% or greater than 90% following 12 hours after exposure to the environment of use and greater than 90% following 22 hours after exposure to the environment of use.

half-life ([1]; read-out: final half life of the drug): 10 to 13 h
half-life ([1]; read-out: initial half life of the drug): < 5 h
volume of distribution (Vd) ([1]; single oral dose): about 640 liters
period of release, controlled and increasing dose ([2]; ascending release profile, FIG. 5): 24 h
period of release of active agent ([2]; first-order release profile, FIG. 4): about 20 hours
amount released ([2]; first-order release profile, after 11 hours, FIG. 4): 90%
period of release of active agent ([2]; zero-order release profile, FIG. 3): about 20 hours
amount released ([2]; zero-order release profile, after 16 hours, FIG. 3): 90%
SMILES: Nc1cnc(-c2cc(Cl)cc(Cl)c2Cl)c(N)n1 [3-(2,3,5-trichloro-phenyl)-pyrazine-2,6-diamine]
